Several values for one entry are separate records, joined by “and”; a condition that tells them apart may be missing. Equal entries are not always repeated. Where two headings read alike, the source gives them in different places.
What was measured:
Kir4.1 T162A = target: T1, Kir4.1 T162A (Homo sapiens, UniProt P78508, T162A); assay: Whole-cell patch clamp, Kir4.1 point mutant T162A; type: cell-based; details: JX3212 3 µM (Fig 2D)
T1 construct: expressed in transfected cells; host or cells: CHO-K1
T1 sequence (P78508 whole entry T162A): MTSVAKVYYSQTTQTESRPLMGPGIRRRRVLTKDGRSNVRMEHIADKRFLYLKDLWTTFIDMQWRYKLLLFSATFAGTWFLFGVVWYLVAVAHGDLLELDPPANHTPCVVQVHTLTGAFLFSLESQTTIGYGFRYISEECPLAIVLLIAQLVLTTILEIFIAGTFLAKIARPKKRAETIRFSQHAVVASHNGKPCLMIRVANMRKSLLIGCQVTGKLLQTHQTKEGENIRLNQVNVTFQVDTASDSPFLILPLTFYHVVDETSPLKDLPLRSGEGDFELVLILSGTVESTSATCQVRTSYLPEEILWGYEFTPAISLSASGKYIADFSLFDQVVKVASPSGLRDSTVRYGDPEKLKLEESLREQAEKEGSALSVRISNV
Procedure: (§1) Plasmids encoding WT human potassium channels Kir1.1, Kir2.1, Kir2.2, Kir4.1, and Kir4.2 were obtained from the Beijing Genomics Institute. All point mutations were constructed using the QuickChange II Site‐Directed Mutagenesis Kit (Stratagene) and subsequently verified by sequencing.
(§2) CHO‐K1 cells were maintained in DMEM/F12 growth medium containing 10% fetal bovine serum. Plasmids encoding the target genes (3600 ng) and enhanced green fluorescent protein (400 ng) were cotransfected into cells using Lipofectamine 2000 (Invitrogen) in accordance with the manufacturer's instructions. Cells were seeded onto poly‐d‐lysine (PDL)‐coated glass coverslips 1 h prior to electrophysiological recordings. […]
(§3) Whole‐cell patch‐clamp recordings were obtained either in transiently transfected CHO‐K1 cells or in primary cultured astrocytes at room temperature using standard patch‐clamp techniques with an Axopatch‐700B amplifier (Axon Instruments). […] Macroscopic currents generated by expressed potassium channels were recorded under the voltage‐clamp conditions with an internal pipette solution composed of (in mM): 140 KCl, 5 NaCl, 1 CaCl2, 1 MgCl2, 10 HEPES, and 10 EGTA, pH 7.2 adjusted with KOH. […] Astrocytic resting membrane potentials were recorded under current‐clamp conditions (I = 0 pA) using standard internal and external solutions, determined immediately after achieving whole‐cell mode.

mice [1] = assay: Repeat-dose (14-day subacute) toxicity study
Procedure: The mice received daily treatments for 14 consecutive days and were monitored once daily for signs of toxicity. Individual body weights were measured daily throughout the observation period. At the end of this period, all mice were sacrificed and dissected. Macroscopic evaluation was performed, and the heart, liver, spleen, lungs, kidneys, and brain were excised for relative weight calculations. Representative organ fragments were embedded in formalin and paraffin, then fixed for subsequent histopathological analysis. Serum biochemical analyses included determination of creatinine, urea, alanine aminotransferase, and aspartate aminotransferase.

[2] = target: T2, DAT (dopamine transporter) (Homo sapiens, UniProt Q01959); assay: DAT functional assay (fluorescent neurotransmitter transporter uptake); type: cell-based; set-up: DAT inhibition, replicates: unit not given here
T2 construct: expressed in transfected cells
T2 sequence (Q01959 whole entry): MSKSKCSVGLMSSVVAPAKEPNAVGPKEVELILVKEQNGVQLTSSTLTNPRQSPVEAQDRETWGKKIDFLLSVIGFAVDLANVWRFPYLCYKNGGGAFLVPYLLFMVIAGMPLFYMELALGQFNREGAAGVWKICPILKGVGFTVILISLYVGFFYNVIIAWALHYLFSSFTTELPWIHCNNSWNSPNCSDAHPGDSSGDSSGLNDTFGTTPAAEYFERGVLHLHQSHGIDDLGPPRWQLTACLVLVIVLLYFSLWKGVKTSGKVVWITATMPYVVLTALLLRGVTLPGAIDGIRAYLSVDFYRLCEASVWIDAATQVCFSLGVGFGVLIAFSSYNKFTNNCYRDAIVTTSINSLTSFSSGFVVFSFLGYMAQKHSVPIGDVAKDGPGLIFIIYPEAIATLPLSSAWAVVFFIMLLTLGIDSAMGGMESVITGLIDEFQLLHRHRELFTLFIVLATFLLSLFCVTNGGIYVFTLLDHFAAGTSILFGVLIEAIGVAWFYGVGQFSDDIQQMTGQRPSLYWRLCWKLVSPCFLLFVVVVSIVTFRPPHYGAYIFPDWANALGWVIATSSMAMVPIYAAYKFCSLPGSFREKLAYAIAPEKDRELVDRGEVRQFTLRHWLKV
Procedure: The 5‐HTT/DAT functional assays were commissioned by Elsevier Science and Technology Co., Ltd. (Beijing). A fluorescence‐based neurotransmitter assay was conducted using a Neurotransmitter Transporter Uptake Assay Kit (Molecular Devices, R8174), according to the manufacturer's protocol. Flp‐in T‐rex 293 cells transiently expressing the human norepinephrine transporter and HEK293 cells stably expressing the human dopamine or serotonin transporters were seeded in PDL‐coated 384‐well plates and incubated overnight. Subsequently, the medium was removed, and the cells were treated with 16 µL of compounds diluted in assay buffer for 0.5 h at 37 °C. Centanafadine and 0.1% DMSO served as positive and negative controls, respectively. Then, 16 µL of dye mix prepared in 1× Hanks’ Balanced Salt Solution was added to each well and incubated at 37 °C for 1 h. Finally, the data point was acquired via a fluorescence plate reader with excitation at 450 nm and emission at 528 nm.

mice [3] = assay: Rotarod test (RT); type: in vivo; details: chronic 10 mg kg−1 per day
Procedure: The rotarod test was designed to evaluate the coordination and motor performance of rodents. The speed and time were set for the rod rotators. All experimental mice were allowed to adapt to a lower speed (5 rpm). For the formal test, the mice were placed on a rod spinning at 20 rpm, and the duration that the mice were able to hold on the rod at this speed was recorded. The maximum test duration was 20 min.

Kir4.1 T128A = target: T3, Kir4.1 T128A (Homo sapiens, UniProt P78508, T128A); assay: Whole-cell patch clamp, Kir4.1 point mutant T128A; type: cell-based
T3 construct: expressed in transfected cells; host or cells: CHO-K1
T3 sequence (P78508 1-379 T128A): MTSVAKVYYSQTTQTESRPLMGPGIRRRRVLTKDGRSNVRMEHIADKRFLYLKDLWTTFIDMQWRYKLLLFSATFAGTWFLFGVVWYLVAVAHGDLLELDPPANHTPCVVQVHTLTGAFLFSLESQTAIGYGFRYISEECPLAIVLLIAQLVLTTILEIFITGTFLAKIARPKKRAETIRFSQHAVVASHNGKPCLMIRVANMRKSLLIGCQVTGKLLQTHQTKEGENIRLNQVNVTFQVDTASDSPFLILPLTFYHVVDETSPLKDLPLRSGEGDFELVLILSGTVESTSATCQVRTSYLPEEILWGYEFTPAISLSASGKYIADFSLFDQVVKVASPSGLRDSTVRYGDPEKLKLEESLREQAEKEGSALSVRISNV
Procedure: as §1
CHO‐K1 cells were maintained in DMEM/F12 growth medium containing 10% fetal bovine serum. Plasmids encoding the target genes (3600 ng) and enhanced green fluorescent protein (400 ng) were cotransfected into cells using Lipofectamine 2000 (Invitrogen) in accordance with the manufacturer's instructions. Cells were seeded onto poly‐d‐lysine (PDL)‐coated glass coverslips 1 h prior to electrophysiological recordings. All cells were cultured under standard conditions of 5% CO2 at 37 °C.
Whole‐cell patch‐clamp recordings were obtained either in transiently transfected CHO‐K1 cells or in primary cultured astrocytes at room temperature using standard patch‐clamp techniques with an Axopatch‐700B amplifier (Axon Instruments). The signals were filtered at 2 kHz and sampled at 20 kHz using the Digidata 1440A interface (Axon Instruments). The resistance of borosilicate glass pipettes was typically 2–4 MΩ when filled with the internal solution. Drug application was facilitated using a BPS perfusion system (ALA Scientific Instruments). Macroscopic currents generated by expressed potassium channels were recorded under the voltage‐clamp conditions with an internal pipette solution composed of (in mM): 140 KCl, 5 NaCl, 1 CaCl2, 1 MgCl2, 10 HEPES, and 10 EGTA, pH 7.2 adjusted with KOH. The external solution contained (in mM): 140 NaCl, 5 KCl, 2 CaCl2, 1 MgCl2, 10 glucose, and 10 HEPES, pH 7.4 adjusted with NaOH. Currents were elicited with a hyperpolarized voltage at −120 mV from the holding potential of −80 mV, followed by a ramp voltage depolarizing to +50 mV. Astrocytic resting membrane potentials were recorded under current‐clamp conditions (I = 0 pA) using standard internal and external solutions, determined immediately after achieving whole‐cell mode.

Kir2.2 = target: T4, Kir2.2 (Homo sapiens, UniProt Q14500); assay: Whole-cell patch clamp, Kir2.2; type: cell-based; details: mean ± SEM
T4 construct: host or cells: CHO-K1
T4 sequence (Q14500 whole entry): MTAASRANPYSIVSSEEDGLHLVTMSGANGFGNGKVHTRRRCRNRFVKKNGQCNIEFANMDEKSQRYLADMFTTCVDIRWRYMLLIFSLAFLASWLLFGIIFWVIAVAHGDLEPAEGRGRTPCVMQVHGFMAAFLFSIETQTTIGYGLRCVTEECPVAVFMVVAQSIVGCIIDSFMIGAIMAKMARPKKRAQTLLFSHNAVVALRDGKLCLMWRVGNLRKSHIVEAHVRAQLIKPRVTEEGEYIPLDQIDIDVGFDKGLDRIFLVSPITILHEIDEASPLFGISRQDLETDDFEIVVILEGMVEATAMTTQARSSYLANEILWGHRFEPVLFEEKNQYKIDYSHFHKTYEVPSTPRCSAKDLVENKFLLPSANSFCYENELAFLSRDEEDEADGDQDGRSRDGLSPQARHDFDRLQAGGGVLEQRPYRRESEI
Procedure: as §1, §2, §3

[4] = 100 mg/kg, 14-day, individual animals
[5] = organ weight index, 100 mpk, 14-day, individual animals, 100 mg/kg

Q: How did the “Mutation: T162A inhibition, single recordings” value (Kir4.1 T162A) turn out when `c1ccc2c(c1)oc1ccc(Nc3ccnc(NCCCN4CCOCC4)n3)cc12` [JX3212, N^4-(dibenzo[b,d]furan-2-yl)-N^2-(3-morpholinopropyl)pyrimidine-2,4-diamine] was run?
A: 80.9735 and 73.6489 and 64.6435 and 83.1492 and 87.0339

Q: And the “histomorphology of liver, spleen, kidneys, HE staining (in words)” value (mice [1]; 100 mg kg−1 i.p., 14 days)?
A: no pronounced pathological changes

Q: What about the “serum creatine level (in words)” value (mice [1]; 100 mg kg−1 i.p., 14 days) of the same molecule?
A: slight decrease in creatine levels

Q: What about the “mortality, body weight, organ-to-body weight ratio (in words)” value (mice [1]; 100 mg kg−1 i.p., 14 days, n = 6) of the same molecule?
A: No mortality or significant changes in body weight

Q: And the ALT (mice [1]; [4])?
A: 24 and 28 and 22 and 33 and 30 and 36

Q: And the AST (mice [1]; [4])?
A: 77 and 98 and 90 and 81

Q: What about the Cr (mice [1]; [4]) of the same molecule?
A: 23 and 24 and 31 and 22

Q: And the Body weight (mice [1]; 100 mpk, day 1, individual animals)?
A: 24.7 and 25 (2×) and 25.5

Q: And the Body weight (mice [1]; 100 mpk, day 2, individual animals)?
A: 24.3 and 25 and 24.7 and 23.4 (2×) and 24.2

Q: And the Body weight (mice [1]; 100 mpk, day 3, individual animals)?
A: 25 (2×) and 23.6 and 23.7 and 24.2 and 23.8

Q: What about the Body weight (mice [1]; 100 mpk, day 4, individual animals) of the same molecule?
A: 23.4 and 25 and 24.7 and 25.4 and 24 (2×)

Q: And the Body weight (mice [1]; 100 mpk, day 5, individual animals)?
A: 25 and 23.3 and 24.7 (2×) and 25.4

Q: What about the Body weight (mice [1]; 100 mpk, day 6, individual animals, in g (unit assumed)) of the same molecule?
A: 24.7 and 23.4 and 25 and 25.8 and 24.4

Q: What about the Body weight (mice [1]; 100 mpk, day 7, individual animals, in g (unit assumed)) of the same molecule?
A: 25.1 and 23.1 and 25.2 and 25.3 and 23.9 and 24.5

Q: What about the Body weight (mice [1]; 100 mpk, day 8, individual animals) of the same molecule?
A: 24.6 (2×) and 23.2 and 24 and 24.9 and 22.8

Q: And the Body weight (mice [1]; 100 mpk, day 9, individual animals)?
A: 23.2 and 23 and 24.8 (2×) and 23.5 and 25

Q: And the Body weight (mice [1]; 100 mpk, day 10, individual animals, in g (unit assumed))?
A: 23.6 and 22.9 and 24.4 and 24.1

Q: What about the Body weight (mice [1]; 100 mpk, day 11, individual animals, in g (unit assumed)) of the same molecule?
A: 24.4 and 23.3 and 23.8

Q: And the Body weight (mice [1]; 100 mpk, day 12, individual animals, in g (unit assumed))?
A: 24.4 and 23.7 and 24.2 and 23.3

Q: And the Body weight (mice [1]; 100 mpk, day 13, individual animals)?
A: 24.3 and 24.1 (2×) and 23.6 and 25.7 and 23.4

Q: What about the Body weight (mice [1]; 100 mpk, day 14, individual animals, in g (unit assumed)) of the same molecule?
A: 24.1 and 23.8 and 26.2 and 24.4 and 22.9 and 24

Q: What about the Brain (mice [1]; [5]) of the same molecule?
A: 1.903 and 1.921 and 1.682 and 2.001 and 1.79 and 1.878

Q: What about the Heart (mice [1]; [5]) of the same molecule?
A: 0.4606 and 0.4848 and 0.4887 and 0.4129 and 0.4371 and 0.4527

Q: And the Kidney (mice [1]; [5])?
A: 1.532 and 1.538 and 1.4509 and 1.426 and 1.403 and 1.554

Q: What about the Liver (mice [1]; [5]) of the same molecule?
A: 6.39 and 5.873 and 5.169 and 5.3375 and 6.082 and 6.251

Q: What about the Lung (mice [1]; [5]) of the same molecule?
A: 0.6629 and 0.6646 and 0.5455 and 0.5464 and 0.7241 and 0.5883

Q: And the Spleen (mice [1]; [5])?
A: 0.4787 and 0.4556 and 0.409 and 0.4522 and 0.473 and 0.3725

Q: And the IC50 [2]?
A: 5.2 µM

Q: And the “DAT inhibition, replicates” value ([2]; concentration 3)?
A: -3.23 and -17.79

Q: What about the “DAT inhibition, replicates” value ([2]; concentration 10) of the same molecule?
A: -5 and -8.74

Q: And the “DAT inhibition, replicates” value ([2]; concentration 30)?
A: 1.89 and -0.08

Q: And the “DAT inhibition, replicates” value ([2]; concentration 100)?
A: -1.46 and -1.85

Q: And the “DAT inhibition, replicates” value ([2]; concentration 300)?
A: -3.23 and -0.87

Q: And the “DAT inhibition, replicates” value ([2]; concentration 1000)?
A: 32

Q: What about the “DAT inhibition, replicates” value ([2]; concentration 3000) of the same molecule?
A: 70.17 and 28.06

Q: And the “DAT inhibition, replicates” value ([2]; concentration 10000)?
A: 80.01 and 56.79

Q: And the “DAT inhibition, replicates” value ([2]; concentration 30000)?
A: 99.88 and 90.83

Q: What about the “DAT inhibition, replicates” value ([2]; concentration 100000 (unit not given)) of the same molecule?
A: 110.9 and 109.92

Q: And the “rotarod falling latency vs vehicle (in words)” value (mice [3])?
A: showed no significant effects

Q: What about the inhibition at 3 µM (Kir4.1 T128A; 3 µM, mean ± SEM, read-out: current inhibition, Kir4.1 T128A) of the same molecule?
A: 33.9 ± 4.58%

Q: What about the “Mutation: T128A inhibition, single recordings” value (Kir4.1 T128A; JX3212 3 µM (Fig 2D)) of the same molecule?
A: 37.4256 and 28.9608 and 38.1757

Q: What about the inhibition at 3 µM (Kir4.1 T128A; JX3212 3 µM (Fig 2D), read-out: Mutation: T128A inhibition, single recordings) of the same molecule?
A: 31.1%

Q: And the inhibition at 3 µM (Kir2.2)?
A: 14.3 ± 8.36%

From article PMC12903969, “Discovery of a Novel and Potent Kir4.1 Inhibitor as a Safe and Rapid‐Onset Antidepressant Agent in Mice” (Advanced Science, 2025)
